Results published in patent US20100240029A1, “Cholesterol-Regulating Complex of SIRT1 and LXR and Methods of Use” (Massachusetts Institute of Technology, priority 2006, published 2010).
Where two headings read alike, the source gives them in different places. Peptide text beside a SMILES is read from it. * marks the point of attachment. Cbz = O=C(OCc1ccccc1)*

Key:
[1] = test system: mouse ABCA1 promoter (LXRE); assay: mouse ABCA1 promoter driven luciferase reporter assay in HEK293T cells; assay type: cell-based; settings: for basal activity of control reporter missing the LXRE / induction of luciferase reporter driven by wildtype ABCA1 promoter: 6 h; for basal activity of control reporter missing the LXRE: 10 mM nicotinamide or 25 μM MG132; for induction of luciferase reporter driven by wildtype ABCA1 promoter: with 10 μM 22(R)—HC and 1 μM 9-cisRA, 10 mM nicotinamide, 25 μM MG132 or both; for inhibition of 22(R)—HC+9-cisRA-induced luciferase expression, wildtype ABCA1 promoter: 10 mM nicotinamide or 1 μM TSA
Description: The luciferase reporter plasmid pGL3-ABCA1 was created by inserting the −847 to +244 of mouse ABCA1 promoter region into KpnI-XhoI sites of pGL3 vector (Promega, Madison, Wi). pGL3-ABCA1-LXRE, the LXRE mutant version of pGL3-ABCA1, was created by deleting the LXRE from wildtype promoter of mouse ABCA1.
For the luciferase assay, MEFIs or HEK293T cells plated in 24-well plates were transfected with 100 ng of pGL3-ABCA1 or pGL3-ABCA1-LXRE, and 10 ng of pRL-TK (Renilla luciferase; Promega). The cells transfected with wildtype (WT) or LXRE mutant (−LXRE) mouse ABCA1 promoter driven luciferase reporter vectors were treated with 1 μM Trichostatin A (TSA), an inhibitor of class I and II deacetylases, or 10 mM nicotinamide (Nico), or both 10 mM nicotinamide+1 μM TSA. Cells transfected with the LXRE mutant vector were incubated in DMEM with 10% FBS in the absence (solid bars) or presence (open bars) of 10 μM 22(R)—HC and 1 μM 9-cisRA (FIG. 2b). Luciferase activity was then measured by using the Dual-Luciferase Reporter Assay System (Promega) 6 or 24 h later. The final GL (firefly luciferase) activity was normalized with co-expressed RL (Renilla luciferase) activity. The experiments were performed in duplicate and were repeated 3 times.
HEK293T cells transfected with wildtype (WT; FIG. 4g, left panel) or LXRE mutant (−LXRE; FIG. 4g, right panel) mouse ABCA1 promoter driven luciferase reporter vectors were treated with either 10 mM nicotinamide (Nico), 25 μM MG132, or both 10 mM nicotinamide+25 μM MG132, in the absence (solid bars) or presence (open bars) of 10 μM 22(R)—HC and 1 μM 9-cisRA for 6 h. Luciferase activities were measured and normalized as in Example 5.

HA-LXRβ = HA-LXRβ protein level in HEK293T cells by western blotting; assay type: cell-based, mouse; settings: 6 h; for levels of HA-LXRβ protein: 1 μM TSA, 10 mM nicotinamide or 25 μM MG132
Description: HEK293T cells expressing HA-LXRβ driven by an exogenous CMV promoter were transfected either with pSuper vector, or with a pSuper-SIRT1 RNAi construct. Cells were harvested 3 days after transfection and the levels of HA-LXRβ and SIRT1 were analyzed by western blotting using antibodies to HA and SIRT1. […] Since there was no detectable reduction of LXR mRNA in SIRT1−/− mice (FIG. 3a), SIRT1 regulates LXR protein levels post-transcriptionally.
HEK293T cells expressing HA-LXRβ were treated with either control medium (FIG. 3c, lane 1), or medium with 1 μM TSA (lane 2), 10 mM nicotinamide (lane 3), 25 μM MG132 (carbobenzyloxy-Leu-Leu-Leu-al, a proteasome inhibitor) (lane 4), or 10 mM nicotinamide plus 25 μM MG132 (lane 5) for 6 h. Cells were then harvested and the levels of HA-LXRβ and SIRT1 were analyzed by western blotting using antibodies to HA (upper images) and SIRT1 (middle images). […] Since there was no detectable reduction of LXR's mRNA in SIRT1−/− mice (see Example 9, FIG. 3a), SIRT1 regulates LXR protein levels post-transcriptionally. It is believed that inhibition of SIRT1 activity by nicotinamide increases the protein levels of LXR by interfering with proteasome-mediated LXR degradation.
The basis for the finding that LXR activity is inversely correlated with protein levels was next examined. Since acetylation of lysine residues can block ubiquitination and SIRT1 is a deacetylase, loss of SIRT1 activity might stabilize LXR proteins by increasing the steady state level of LXR acetylation, thus inhibiting the ubiquitin/proteasome degradation pathway.

[2] = plasma and liver lipids of mice after 8-day oral T0901317; assay type: in vivo, mouse
Description: To determine the total cholesterol levels in mouse tissues, SIRT1^−/− mice and control littermates were fasted for four hours from the beginning of the daylight cycle before sacrificing. Tissues were then harvested and weighted. Total cholesterol from liver and testis were extracted and measured by GC as described previously^70, 71. Total lipids including triglycerides were also dissolved into a solution containing 60% butanol, 13% methanol, and 27% Triton X-100, and measured with the enzymatic, colorimetric assay kits from Wako.
2-6 month old SIRT1−/− and control males were fed with T0901317 (10 mg/kg) by oral gavage, plasma were collected before and after feeding for plasma lipid analyses. Tissues were collected after feeding for further analyses. Total RNA from liver of wildtype animals without (black filled bar) or fed with 10 mg/kg T0901317 (black striped bar) and SIRT1^−/− mice without (open bar) or with T0901317 (gray striped bar) were analyzed by real-time PCR. […] However, the induction of these targets in SIRT1^−/− mice was blunted. Total protein lysates were obtained from livers of indicated mice and analyzed for the levels of ABCA1 protein by immunoblotting (FIG. 3c). (As previously observed, ABCA1 proteins comprise multiple bands by western blotting^78.)
Plasma results in FIG. 3, panels d, e, and f represent the same mice before and after 8-days administration of T0901317. […]

[3] = through induction of SREBP-1c; cited from earlier work
LXR targets = assay: LXR target mRNAs in livers of mice fed T0901317 (real-time PCR); assay type: in vivo, mouse; settings: 10 mg/kg oral gavage, 8 days
Source text: Total RNA was isolated from mouse livers, testes, thioglycolate-stimulated peritoneal macrophages, and ovaries by a Qiagen RNeasy mini-kit (Qiagen Inc., Calencia, Ca.). For real-time PCR analysis, cDNA was synthesized by SuperScript III reverse transcriptase (Invitrogen, Carlsbad, Calif.) with random primers. The resulting cDNA was then subjected to PCR analysis with gene-specific primers in the presence of Cybergreen (Qiagen Inc., Calencia, Ca.). Relative abundance of mRNA was obtained by normalization to cyclophilin levels. […] The mRNA levels of ABCA1 were quantified by phosphoimager and normalized against the corresponding actin levels.
To gain further insight into the effect of SIRT1 on LXR function in vivo, wildtype and SIRT1^−/− animals were analyzed for their response to 8-day oral administration of the LXR agonist T0901317 (N-(2,2,2-trifluoro-ethyl)-N-[4-(2,2,2-trifluoro-1-hydroxy-1-trifluoromethyl-ethyl)-phenyl]-benzenesulfonamide)^53.
2-6 month old SIRT1−/− and control males were fed with T0901317 (10 mg/kg) by oral gavage, plasma were collected before and after feeding for plasma lipid analyses. […] Total RNA from liver of wildtype animals without (black filled bar) or fed with 10 mg/kg T0901317 (black striped bar) and SIRT1^−/− mice without (open bar) or with T0901317 (gray striped bar) were analyzed by real-time PCR. […]

THP-1 cells = assay: apoAI-mediated [3H]cholesterol efflux from THP-1 cells; assay type: cell-based, human; settings: THP-1, 10 mM nicotinamide for 48 h, efflux to 15 μg/ml apoAI for 24 h
Description: For the human monocytic cell line THP-1 cells, cells were treated with 10 mM nicotinamide in RPMI1640/10% FBS for 48 h, then cholesterol loaded with 50 μg/ml of LDL and 1 μCi/ml of [^3H]cholesterol in RPMI1640/1% FBS/0.2% BSA medium for 24 h. Cells were washed with PBS and incubated in RPMI 1640/0.2% BSA with or without 15 μg/ml apoAI for 24 h. The medium and cells were then separated, and cells were lysed with 0.2N NaOH. The radioactivity recovered in the medium and cell lysates were measured and the apoAI-mediated cholesterol efflux was calculated as described above.

[4] = test system: T1, NH2-terminal HA-tagged mouse LXRβ
T1 sequence: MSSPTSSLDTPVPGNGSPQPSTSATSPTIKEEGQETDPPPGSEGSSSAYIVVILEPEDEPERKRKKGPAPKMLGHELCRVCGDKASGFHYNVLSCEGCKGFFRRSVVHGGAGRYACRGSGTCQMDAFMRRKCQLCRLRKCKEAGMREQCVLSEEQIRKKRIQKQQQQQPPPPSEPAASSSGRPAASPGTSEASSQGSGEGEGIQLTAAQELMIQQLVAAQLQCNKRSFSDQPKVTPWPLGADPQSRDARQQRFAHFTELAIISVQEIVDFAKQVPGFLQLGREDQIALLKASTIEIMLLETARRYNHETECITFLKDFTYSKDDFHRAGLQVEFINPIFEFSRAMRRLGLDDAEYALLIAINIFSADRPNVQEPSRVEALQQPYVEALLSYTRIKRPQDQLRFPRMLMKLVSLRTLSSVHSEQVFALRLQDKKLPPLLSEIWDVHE

[5] = target: T2, NH2-terminal HA-tagged mouse LXRβ
T2 chain: T1 sequence

Molecule: CC(C)C[C@@H](C=O)NC(=O)[C@H](CC(C)C)NC(=O)[C@H](CC(C)C)NC(=O)OCc1ccccc1 [MG132, carbobenzyloxy-Leu-Leu-Leu-al] (Cbz-Leu-Leu-Leu-aldehyde)
- basal activity of control reporter missing the LXRE [1]: not altered
- induction of luciferase reporter driven by wildtype ABCA1 promoter [1]: inhibited the reporter to the same extent as nicotinamide
- levels of HA-LXRβ protein (HA-LXRβ): increase the steady state levels of LXR
- levels of HA-LXRβ protein when SIRT1 is inhibited by nicotinamide (HA-LXRβ; 25 μM MG132 plus 10 mM nicotinamide (lane 4 vs. lane 5)): not when SIRT1 is inhibited by nicotinamide

Molecule: O=S(=O)(c1ccccc1)N(CC(F)(F)F)c1ccc(C(O)(C(F)(F)F)C(F)(F)F)cc1 [T0901317, N-(2,2,2-trifluoro-ethyl)-N-[4-(2,2,2-trifluoro-1-hydroxy-1-trifluoromethyl-ethyl)-phenyl]-benzenesulfonamide]
- induction of plasma and hepatic triglyceride accumulation ([2]; SIRT1−/− vs wildtype mice, 10 mg/kg oral, 8 days): reduced response
- plasma cholesterol levels after feeding ([2]; SIRT1−/− vs wildtype treated mice, especially HDL size particles): Lower plasma cholesterol levels
- plasma and hepatic triglycerides [3]: elevation of plasma and hepatic triglycerides
- induction of LXR targets SREBP-1c, LPL and ABCA1 in liver (LXR targets; SIRT1−/− mice): blunted
- expression of LXR targets SREBP-1c, LPL and ABCA1 at the RNA level in liver (LXR targets; wildtype mice): significantly induced

Molecule: CC(/C=C/C(=O)NO)=C\[C@@H](C)C(=O)c1ccc(N(C)C)cc1 [TSA, Trichostatin A]
- inhibition of 22(R)—HC+9-cisRA-induced luciferase expression, wildtype ABCA1 promoter [1]: not inhibited

Molecule: NC(=O)c1cccnc1 [nicotinamide]
- inhibition of 22(R)—HC+9-cisRA-induced luciferase expression, wildtype ABCA1 promoter [1]: 50%
- basal activity of control reporter missing the LXRE [1]: not altered
- induction of luciferase reporter driven by wildtype ABCA1 promoter [1]: blunted the induction
- levels of HA-LXRβ protein (HA-LXRβ): elevated levels
- suppression of apoAI-mediated [3H]cholesterol efflux (THP-1 cells): roughly three-fold

Molecule: human SIRT1 H355Y, inactive deacetylase mutant
- amount of ubiquitin-conjugated LXR (anti-HA immunoprecipitation, western blot with anti-ubiquitin) [4]: but not the inactive mutant hSIRT1HY increased the amount of ubiquitin-conjugated LXR in transfected HEK293T cells

B1: human SIRT1 protein (protein)
chain: MADEAALALQPGGSPSAAGADREAASSPAGEPLRKRPRRDGPGLERSPGEPGGAAPEREVPAAARGCPGAAAAALWREAEAEAAAAGGEQEAQATAAAGEGDNGPGLQGPSREPPLADNLYDEDDDDEGEEEEEAAAAAIGYRDNLLFGDEIITNGFHSCESDEEDRASHASSSDWTPRPRIGPYTFVQQHLMIGTDPRTILKDLLPETIPPPELDDMTLWQIVINILSEPPKRKKRKDINTIEDAVKLLQECKKIIVLTGAGVSVSCGIPDFRSRDGIYARLAVDFPDLPDPQAMFDIEYFRKDPRPFFKFAKEIYPGQFQPSLCHKFIALSDKEGKLLRNYTQNIDTLEQVAGIQRIIQCHGSFATASCLICKYKVDCEAVRGDIFNQVVPRCPRCPADEPLAIMKPEIVFFGENLPEQFHRAMKYDKDEVDLLIVIGSSLKVRPVALIPSSIPHEVPQILINREPLPHLHFDVELLGDCDVIINELCHRLGGEYAKLCCNPVKLSEITEKPPRTQKELAYLSELPPTPLHVSEDSSSPERTSPPDSSVIVTLLDQAAKSNDDLDVSESKGCMEEKPQEVQTSRNVESIAEQMENPDLKNVGSSTGEKNERTSVAGTVRKCWPNRVAKEQISRRLDGNQYLFLPPNRYIFHGAEVYSDSEDDVLSSSSCGSNSDSGTCQSPSLEEPMEDESEIEEFYNGLEDEPDVPERAGGAGFGTDGDDQEAINEAISVKQEVTDMNYPSNKS
- amount of ubiquitin-conjugated LXR (anti-HA immunoprecipitation, western blot with anti-ubiquitin) [5]: expression of an active SIRT1 transgene (hSIRT1) but not the inactive mutant hSIRT1HY increased the amount of ubiquitin-conjugated LXR in transfected HEK293T cells
